According to US20230398130A1, “METHODS AND COMPOSITIONS FOR DIFFERENTIATING STEM CELLS” (Massachusetts Institute of Technology, priority 2020, published 2023):

Tests used:
ISC-enriched organoids [1] = assay: Primary screen, 384-well 2.5-D organoid differentiation (ENR+CD, 6 days): basal lysozyme secretion (LYZ.NS); format: cell-based, murine; details: for Dose.FC.LYZ.NS (log 2 fold change) / Dose.FC.LYZ.NS (log 2 fold change, basal lysozyme secretion): vs plate median
Excerpt: (§1) High-throughput screening.

ISC-enriched organoids [2] = assay: Primary screen, 384-well 2.5-D organoid differentiation (ENR+CD, 6 days): carbachol-induced lysozyme secretion (LYZ.S); format: cell-based, murine; details: vs plate median; for Dose.FC.LYZ.S (log 2 fold change): primary screen
Excerpt: as §1

ISC-enriched organoids [3] = assay: Primary screen, 384-well 2.5-D organoid differentiation (ENR+CD, 6 days, Target Selective Inhibitor Library, vs whole-plate median): ATP (CellTiter-Glo 3D, CTG); details: for Dose.FC.CTG (log 2 fold change) / Dose.FC.CTG (log 2 fold change, ATP): vs plate median

Row | SMILES | Z.LYZ.NS (standard z score) (ISC-enriched organoids [1]; Dose 0.08 uM, primary screen) | Dose.FC.LYZ.NS (log 2 fold change) (ISC-enriched organoids [1]; Dose 0.08 uM, primary screen) | Z.LYZ.NS (standard z score) (ISC-enriched organoids [1]; Dose 0.40 uM, primary screen) | Dose.FC.LYZ.NS (log 2 fold change) (ISC-enriched organoids [1]; Dose 0.40 uM, primary screen) | Z.LYZ.NS (standard z score) (ISC-enriched organoids [1]; Dose 2.00 uM, primary screen) | Dose.FC.LYZ.NS (log 2 fold change) (ISC-enriched organoids [1]; Dose 2.00 uM, primary screen) | Z.LYZ.NS (standard z score) (ISC-enriched organoids [1]; Dose 10.00 uM, primary screen) | Dose.FC.LYZ.NS (log 2 fold change) (ISC-enriched organoids [1]; Dose 10.00 uM, primary screen) | Dose.FC.LYZ.S (log 2 fold change) (ISC-enriched organoids [2]; Dose 0.08 uM) | Dose.FC.LYZ.S (log 2 fold change) (ISC-enriched organoids [2]; Dose 0.40 uM) | Dose.FC.LYZ.S (log 2 fold change) (ISC-enriched organoids [2]; Dose 2.00 uM) | Dose.FC.LYZ.S (log 2 fold change) (ISC-enriched organoids [2]; Dose 10.00 uM) | Z.CTG (standard z score) (ISC-enriched organoids [3]; Dose 0.08 uM, primary screen) | Dose.FC.CTG (log 2 fold change) (ISC-enriched organoids [3]; Dose 0.08 uM, primary screen) | Z.CTG (standard z score) (ISC-enriched organoids [3]; Dose 0.40 uM, primary screen) | Dose.FC.CTG (log 2 fold change) (ISC-enriched organoids [3]; Dose 0.40 uM, primary screen) | Z.CTG (standard z score) (ISC-enriched organoids [3]; Dose 2.00 uM, primary screen) | Dose.FC.CTG (log 2 fold change) (ISC-enriched organoids [3]; Dose 2.00 uM, primary screen) | Z.CTG (standard z score) (ISC-enriched organoids [3]; Dose 10.00 uM, primary screen) | Dose.FC.CTG (log 2 fold change) (ISC-enriched organoids [3]; Dose 10.00 uM, primary screen) | further results
1 | COc1cc2c(N3CCN(C(=O)Nc4ccc(OC(C)C)cc4)CC3)ncnc2cc1OCCCN1CCCCC1 [Tandutinib (MLN518)] | 0.828 | 0.095 | 1.066 | 0.122 | 1.012 | 0.116 | 0.407 | 0.047 | 0.145 | 0.178 | 0.093 | 0.100 | 1.397 | 0.585 | 0.845 | 0.354 | 0.856 | 0.358 | 1.401 | 0.586 | –
2 | COc1cc(OC)c(/C=C/S(=O)(=O)Cc2ccc(OC)c(NCC(=O)O)c2)c(OC)c1 [Rigosertib (ON-01910)] | −2.105 | −0.242 | −1.831 | −0.210 | −2.306 | −0.265 | −2.107 | −0.242 | −0.309 | −0.355 | −0.340 | −0.330 | −2.162 | −0.905 | −3.069 | −1.285 | −3.984 | −1.668 | −2.022 | −0.847 | –
3 | CCO.N#CC(=C(/N)Sc1ccccc1N)/C(C#N)=C(\N)Sc1ccccc1N [U0126-EtOH] | – | – | – | – | – | – | – | – | – | – | – | – | – | – | – | – | – | – | – | – | Z.LYZ.NS (standard z score) (ISC-enriched organoids [1]; dose 0.08 uM): 0.859; Dose.FC.LYZ.NS (log 2 fold change, basal lysozyme secretion) (ISC-enriched organoids [1]; dose 0.08 uM): 0.099; Z.LYZ.NS (standard z score) (ISC-enriched organoids [1]; dose 0.40 uM): 0.163; Dose.FC.LYZ.NS (log 2 fold change, basal lysozyme secretion) (ISC-enriched organoids [1]; dose 0.40 uM): 0.019; Z.LYZ.NS (standard z score) (ISC-enriched organoids [1]; dose 2.00 uM): −0.389; Dose.FC.LYZ.NS (log 2 fold change, basal lysozyme secretion) (ISC-enriched organoids [1]; dose 2.00 uM): −0.045; Z.LYZ.NS (standard z score) (ISC-enriched organoids [1]; dose 10.00 uM): −1.021; Dose.FC.LYZ.NS (log 2 fold change, basal lysozyme secretion) (ISC-enriched organoids [1]; dose 10.00 uM): −0.117; Dose.FC.LYZ.S (log 2 fold change, carbachol-induced lysozyme secretion) (ISC-enriched organoids [2]; dose 0.08 uM): 0.114; Dose.FC.LYZ.S (log 2 fold change, carbachol-induced lysozyme secretion) (ISC-enriched organoids [2]; dose 0.40 uM): 0.075; Dose.FC.LYZ.S (log 2 fold change, carbachol-induced lysozyme secretion) (ISC-enriched organoids [2]; dose 2.00 uM): −0.071; Dose.FC.LYZ.S (log 2 fold change, carbachol-induced lysozyme secretion) (ISC-enriched organoids [2]; dose 10.00 uM): −0.165; Z.CTG (standard z score) (ISC-enriched organoids [3]; dose 0.08 uM): −0.835; Dose.FC.CTG (log 2 fold change, ATP) (ISC-enriched organoids [3]; dose 0.08 uM): −0.350; Z.CTG (standard z score) (ISC-enriched organoids [3]; dose 0.40 uM): −1.227; Dose.FC.CTG (log 2 fold change, ATP) (ISC-enriched organoids [3]; dose 0.40 uM): −0.514; Z.CTG (standard z score) (ISC-enriched organoids [3]; dose 2.00 uM): −1.138; Dose.FC.CTG (log 2 fold change, ATP) (ISC-enriched organoids [3]; dose 2.00 uM): −0.476; Z.CTG (standard z score) (ISC-enriched organoids [3]; dose 10.00 uM): −1.887; Dose.FC.CTG (log 2 fold change, ATP) (ISC-enriched organoids [3]; dose 10.00 uM): −0.790
4 | Cc1nn(-c2ccccc2)c(C)c1/C=N/N1CCN(Cc2ccccc2)CC1 [SANT-1] | 0.485 | 0.056 | 0.002 | 0.000 | 1.528 | 0.175 | −0.430 | −0.049 | 0.112 | 0.024 | 0.101 | −0.120 | 0.736 | 0.308 | 0.186 | 0.078 | 0.327 | 0.137 | −0.100 | −0.042 | –
5 | CCn1c(N)c(C(=O)NC)c(=O)c2ccc(C#C[C@@](C)(O)COC)nc21 [SAR131675] | 0.483 | 0.055 | 0.774 | 0.089 | 0.181 | 0.021 | −0.766 | −0.088 | 0.148 | 0.096 | 0.026 | 0.000 | 0.419 | 0.175 | −0.201 | −0.084 | 0.169 | 0.071 | 0.149 | 0.062 | –
